Measurements published in patent US11919886B2, “4,9-dioxo-4,9-dihydronaphtho[2,3-B]furan-3-carboxamide derivatives and uses thereof for treating proliferative diseases and infectious diseases” (Academia Sinica, priority 2016, dated 2024).
Converted amounts (≈) assume the structure as drawn. Read-outs that look alike come from different tables or passages of the source.

Tests used:
[1] = test system: Escherichia coli; assay: MIC, broth micro dilution method; type: cell-based
[2] = test system: Streptococcus gallolyticus subsp. gallolyticus; assay: MIC, broth micro dilution method; type: cell-based; conditions: strain ATCC43143, S. bovis
[3] = test system: Shigella sonnei; assay: MIC, broth micro dilution method; type: cell-based
[4] = test system: Staphylococcus aureus; assay: Bacterial growth by Alamar Blue in Muller-Hinton broth; type: cell-based
Protocol: (§1) Compound 1 and its analogues shown in Table 6 below were tested for their activities on cancer cells and bacterial cells using assays described herein. H1975, MDA-MB231, and MCF7 cells were incubated in the presence of the compounds in cell growth medium containing 10% fetal bovine serum for two days in a mammalian cell culture incubatoe. Cell viability were monitored by using Cell-TiterGlo. Staphylococcus aureus and Escherichia coli were incubated in the presence of the compounds in Muller-Hinton broth for 16-24 hours in a 37° C. incubator. Bacterial growth was monitored by using Alamar Blue (Invitrogen).

[5] = test system: Escherichia coli; assay: as above; type: cell-based; conditions: 16-24 hours, read-out: % of the activities in the presence of ~10 μM compound, Escherichia coli
Protocol: as §1

[6] = test system: H1975 cells; assay: BrdU incorporation (DNA replication) by flow cytometry; type: cell-based, human; conditions: H1975, treated 12, 24 or 48 h
Protocol: Panel (A): A chart showing DNA replication in Compound 1-treated H1975 cells was inhibited. DNA histograms (BrdU incorporation vs. DNA content) of DMSO or compound 1-treated H1975 cells are shown at 12 to 48 hours. The H1975 cells were BrdU-pulsed (BD Pharmingen™ BrdU Flow Kit Staining) and analyzed by flow cytometry. Panel (B): A chart showing compound 1 decreased the replication fork number. The replication forks were analyzed by immunofluorescence staining with anti-MCM2 antibodies (see row labeled “MCM2” and “Merge with DAPI”) and DAPI (see row labeled “Merge with DAPI”). The quantification was made by counting signals obtained with the anti-MCM2 antibody using Image J software. (n=5 cells per group; original magnification, ×1000). Panel (C): A chart showing compound 1-treated H1975 cells have a prolonged S phase. A double thymidine block was performed, and the data were collected at the indicated time points.
To evaluate the effects on DNA replication of Compound 1, the levels of BrdU (5′-bromo′-2′-deoxyuridine) incorporation were examined. Exemplary results are shown in Panel (A) of FIG. 2. […] The content of BrdU was assessed using fluorescent antibodies. […] The samples were analyzed in a FACS caliber flow cytometer (Becton Dickinson, Sweden) for dot plot histogram analysis (BrdU incorporation vs. DNA content).

[7] = test system: CL1-5 (human lung adenocarcinoma cells, EGFR wild type and resistant to gefitinib); assay: SRB cytotoxicity assay, CL1-5; conditions: CL1-5, 72 h
[8] = test system: PC9 (human lung adenocarcinoma cells, EGFR del 19 mutation and sensitive to gefitinib); assay: SRB cytotoxicity assay, PC9; conditions: 72 h
[9] = test system: Enterococcus faecalis; assay: MIC, broth micro dilution method; type: cell-based
[10] = test system: HS68 (human foreskin fibroblast cells, used as normal cells); assay: SRB cytotoxicity assay, HS68 normal cells; conditions: Hs68, 72 h
[11] = test system: H1975 cells; assay: Replication fork number by MCM2 immunofluorescence staining; type: cell-based, human; conditions: H1975, 140 nM, 48 h
Protocol: In addition, to evaluate the effects of compound 1 on the progression of DNA replication, the number of replication forks was determined by MCM2 immunofluorescence staining in H1975 cells released from the G1 phase with DMSO and with compound 1 treatment. Exemplary results are shown in Panel (B) of FIG. 2. To evaluate the effects on DNA replication of compound 1, H1975 cells were arrested in G1 by contact inhibition. After 3 days, the cells were re-plated at a low density on cover slips and allowed to progress through the cell cycle. The cells were pulsed with 140 nM compound for 48 h and were fixed for 10 minutes at room temperature in 3.7% cold paraformaldehyde in PBS (pH 7.2), washed 3 times with PBS, and permeabilized for 10 minutes at room temperature in PBS containing 0.1% Triton X-100. The cells were blocked with PBS containing 3% bovine serum albumin and stained overnight at 4° C. with primary antibodies against MCM2, followed by incubation for 1 hour at 37° C. with Alexa Fluor 488 Goat Anti-Mouse IgG (Life Technologies Corporation), respectively. The cells were mounted onto microscope slides with ProLong Gold Antifade Reagent with DAPI (4′,6-Diamidino-2-phenylindole dihydrochloride) (Life Technologies Corporation) and then examined and photographed using Zeiss LSM 700 Confocal (Zeiss, Urbana, IL). […] (Panel (B) of FIG. 2)

## Cc1oc2c(c1C(=O)NCCCn1ccnc1)C(=O)c1ccccc1C2=O [Compound 1, N-(3-(1H-Imidazol-1-yl)propyl)-2-methyl-4,9-dioxo-4,9-dihydronaphtho [2,3-b]furan-3-carboxamide]
[1]; read-out: MIC (μg/ml) 100%, strain ATCC33625, gram negative
  MIC: > 32 µg/mL
[1]; strain ATCC33625, gram negative, read-out: MIC (μg/ml) 50%
  MIC: > 32 µg/mL
[2]; read-out: MIC (μg/ml) 100%
  MIC: 4 µg/mL (≈ 11 µM)
[2]; read-out: MIC (μg/ml) 50%
  MIC: 2 µg/mL (≈ 5.5 µM)
[3]; read-out: MIC (μg/ml) 100%, strain ATCC9290, gram negative
  MIC: > 32 µg/mL
[3]; strain ATCC9290, gram negative, read-out: MIC (μg/ml) 50%
  MIC: > 32 µg/mL
[4]
  MIC: 2 µg/mL (≈ 5.5 µM)
[4]; ~10 μM, 16-24 hours, Alamar Blue, read-out: % of the activities in the presence of ~10 μM compound, Staphylococcus aureus
  activity at 10 µM: 38.1%
[5]
  activity at 10 µM: > 100%
[6]
  percentages of BrdU-positive cells vs DMSO control: lower than those in the DMSO control group
[7]
  IC50: 280 nM
[8]
  IC50: 37 nM
[9]; read-out: MIC (μg/ml) 100%, strain ATCC19433
  MIC: 32 µg/mL (≈ 88.1 µM)
[9]; strain ATCC19433, read-out: MIC (μg/ml) 50%
  MIC: 16 µg/mL (≈ 44 µM)
[10]
  IC50: > 1000 nM
[11]
  number of the replication fork: 176.8±8.721
